Test results reported in article PMC6691788, “Design and synthesis of phthalazine-based compounds as potent anticancer agents with potential antiangiogenic activity via VEGFR-2 inhibition” (Journal of Enzyme Inhibition and Medicinal Chemistry, 2019).
“Also recorded” adds a separate entry of the source. Read-outs that look alike come from different tables or passages of the source.

Legend:
[1] = tested on: EKVX; assay: NCI 60 cell panel SRB screen; type: cell-based, human; conditions: for GI50 / IC (TGI) / LC50: Homo sapiens, 5 log dose; for LC50: 48 h
[2] = tested on: OVCAR-5; assay: NCI 60 cell panel SRB screen; type: cell-based; conditions: Homo sapiens; for GI50 / IC (TGI) / CC50: OVCAR-5, 5 log dose; for CC50: 48 h, read-out: LC50 (the source's name); for activity at 10 µM: OVCAR-5, single dose 10 μM, read-out: percent cell growth promotion
[3] = tested on: MCF-7 cells; assay: Annexin V-FITC/PI apoptosis detection; type: cell-based; conditions: MCF-7, at GI50, 24 h and 48 h
From the text: (§1) To further investigate the ability of compounds (7b, 13c and 16a) to induce apoptosis, an Annexin V (conjugated to FITC) apoptosis detection kit was employed. This assay detects phosphatidylserine (PS) expressed on the surface of apoptotic cells and fluoresces green after interacting with the labelled Annexin V. During early apoptosis, membrane asymmetry is lost, and PS translocates from the cytoplasmic side of the membrane to the external leaflet. Propidium iodide (PI), the counter stain used in this assay, has the ability to cross only compromised membranes to intercalate into the DNA. Therefore, PI is used to detect the late stages of apoptosis by the presence of red fluorescence.
(§2) Apoptosis was determined by staining cells with Annexin V–fluorescein isothiocyanate (FITC) and counterstaining with propidium iodide (PI) using the Annexin V–FITC/PI apoptosis detection kit (BD PharMingen, San Diego, CA, USA) according to the manufacturer's instructions. […] The cells then were collected by trypsinization and 0.5 × 10^6 cells were washed twice with phosphate-buffered saline (PBS) and stained with 5 μl Annexin V–FITC and 5 μl PI in 1× binding buffer (BD PharMingen) for 15 minutes at room temperature in the dark. Analyses were performed using FACS Calibur flow cytometer (BD Biosciences, San Jose, CA).

[4] = tested on: T-47D; assay: NCI 60 cell panel SRB screen; type: cell-based; conditions: Homo sapiens, T47D; for IC (TGI): read-out: TGI; for activity at 10 µM: read-out: percent cell growth promotion; for CC50: T-47D, 5 log dose, 48 h, read-out: LC50 (the source's name)
[5] = tested on: IGROV1; assay: NCI 60 cell panel SRB screen; type: cell-based; conditions: Homo sapiens, IGROV-1; for GI50 / IC (TGI) / CC50: IGROV1, 5 log dose; for CC50: 48 h, read-out: LC50 (the source's name); for activity at 10 µM: IGROV1, single dose 10 μM, read-out: percent cell growth promotion
[6] = tested on: MDA-MB-435; assay: NCI 60 cell panel SRB screen; type: cell-based; conditions: Homo sapiens; for GI50: MDA-MB-435; for IC (TGI): MDA-MB-435, read-out: TGI; for activity at 10 µM: MDA-MB-435, read-out: percent cell growth promotion; for CC50: MDA-MB-435, 5 log dose, 48 h, read-out: LC50 (the source's name)
[7] = tested on: SF-539; assay: NCI 60 cell panel SRB screen; type: cell-based, human; conditions: for GI50 / IC (TGI) / CC50: Homo sapiens, SF-539, 5 log dose; for CC50: 48 h, read-out: LC50 (the source's name)
[8] = tested on: SK-MEL-2; assay: NCI 60 cell panel SRB screen; type: cell-based; conditions: for GI50 / IC (TGI) / CC50: Homo sapiens; for IC (TGI): read-out: TGI; for CC50: SK-MEL-2, 5 log dose, 48 h, read-out: LC50 (the source's name)
[9] = tested on: full NCI 60 cell panel; assay: NCI 60 cell panel SRB screen, whole panel; type: cell-based, human; conditions: for GI50: NCI 5-log dose, full 60 cell panel, read-out: GI50 values, range over the tested cell lines
[10] = tested on: SK-OV-3; assay: NCI 60 cell panel SRB screen; type: cell-based; conditions: Homo sapiens; for GI50 / IC (TGI) / CC50: SK-OV-3, 5 log dose; for CC50: 48 h, read-out: LC50 (the source's name); for activity at 10 µM: SK-OV-3, single dose 10 μM, read-out: percent cell growth promotion
[11] = tested on: MCF-7 cells; assay: Cellular and nuclear morphology (light microscopy, Dapi staining); type: cell-based; conditions: MCF-7, 0.32 µM, 24 and 48 h
Procedure: To further examine the apoptosis inducing effect of 7b, the cellular as well as nuclear morphological changes for MCF-7 cells treated with 7b (0.32 µM) were studied following Dapi staining. The effect of 7b on cell morphology was initially analysed with light microscopy.
(§3) MCF7 cells were cultured on sterile cover slips (Harvard Apparatus, 22 mm2) in sterile six well plates at a density of 2×10^5 cells/well. Twenty-four hours after seeding, cells were exposed to GI50 concentration of compound 7b in fresh serum-free medium. At the end of the exposure, cells attached to cover slips were imaged with a light inverted microscope or washed with PBS and fixed with 3.7% paraformaldhyde for 10 min, permeabilized with 0.1% Triton X-100 in TBST containing 0.01% Tween 20 for 10 min, and blocked for 1 h with 5% goat serum in TBST. The fixed and permeabilized cells were incubated with cleaved caspase-3 rabbit mAb (Cell signaling technology, MA), at a dilution of 1:500, in blocking solution overnight at 4 °C, followed by secondary Cy3-goat anti-Rabbit antibody (Jackson Immuno Research, West Grove, PA) 1:1000 dilution, in the blocking solution for 1 hour, at room temperature. 4',6'-diamidino-2-phenylindole, dihydrochloride (DAPI) (Sigma– Aldrich, St. Louis, MO) was used as counter stain to stain the DNA. […]

[12] = tested on: cleaved caspase-3 in MCF-7 cells; assay: Cleaved caspase-3 immunostaining; type: cell-based; conditions: MCF-7, 0.32 µM, 24 h and 48 h
Procedure: Caspase-3 is a member of the cysteine-aspartic acid protease (caspase) family. Sequential activation of caspases is considered as one of the important keys in cellular apoptosis process. […] Cleaved caspase-3 further activates a cascade of caspases that induce cell death.
as §3

[13] = tested on: K-562; assay: NCI 60 cell panel SRB screen; type: cell-based; conditions: Homo sapiens, K562; for GI50 / IC (TGI) / CC50: K-562, 5 log dose; for CC50: 48 h, read-out: LC50 (the source's name); for activity at 10 µM: K-562, single dose 10 μM, read-out: percent cell growth promotion
[14] = tested on: MCF-7 cells; assay: Cell-cycle analysis by flow cytometry; type: cell-based; conditions: MCF-7, at GI50 concentration, 24 h and 48 h
From the text: The effect of compound (7b and 13c) on the normal cell-cycle progression was characterised using flow cytometric analysis of the DNA ploidy in MCF-7 cells using BD […] ^TM software. […] The observed increase in sub-G1 cell population may imply DNA fragmentation and apoptosis as a potential mechanism for 7b/13c-induced cancer cell death.
(§4) The cells then were collected by trypsinization, washed with phosphate buffered saline (PBS), and fixed in ice-cold absolute alcohol. Thereafter, cells were stained, using Cycletest^TM Plus DNA Reagent Kit (BD Biosciences, San Jose, CA), according to the manufacturer’s instructions. Cell cycle distribution was determined using a FACS Calibur flow cytometer (BD Biosciences, San Jose, CA).

[15] = tested on: LOX IMVI; assay: NCI 60 cell panel SRB screen; type: cell-based; conditions: Homo sapiens; for CC50: 5 log dose, 48 h, read-out: LC50 (the source's name); for IC (TGI): read-out: TGI; for activity at 10 µM: read-out: percent cell growth promotion
[16] = tested on: HCT-116 cells; assay: Cell-cycle analysis by flow cytometry; type: cell-based; conditions: HCT-116, at GI50 concentration (1.20 µM), 24 h and 48 h
Procedure: as §4

[17] = tested on: HCT-116 cells; assay: Annexin V-FITC/PI apoptosis detection; type: cell-based; conditions: HCT-116, at GI50, 24 h and 48 h
From the text: as §1, §2

O=C(Nc1ccc(Cl)cc1)Nc1ccc(Oc2nncc3ccccc23)cc1 [Compound 7b, 1–(4-Chlorophenyl)-3–(4-(phthalazin-1-yloxy)phenyl)urea]
GI50 [1]: 1.61 µM | IC (TGI) [1]: 4.5 µM | LC50 [1]: > 100 µM | GI50 [2]: 1.89 µM | IC (TGI) [2]: 4.47 µM | CC50 [2]: 12.6 µM | activity at 10 µM [2]: -16% | induction of apoptosis (Annexin-V positive cells), in words [3]: increased the percentage of Annexin-V positive cells indicating an early (lower right quadrant) or late (upper right quadrant) apoptosis in a time-dependent manner | GI50 [4]: 0.24 µM | IC (TGI) [4]: 7.68 µM | activity at 10 µM [4]: 10.2% | CC50 [4]: > 100 µM | GI50 [5]: 1.16 µM | IC (TGI) [5]: 5 µM | CC50 [5]: > 100 µM | activity at 10 µM [5]: 8.16% | GI50 [6]: 0.29 µM | IC (TGI) [6]: 1.07 µM | activity at 10 µM [6]: -33.3% | CC50 [6]: 5.65 µM | GI50 [7]: 0.28 µM | IC (TGI) [7]: 1.13 µM | CC50 [7]: 3.81 µM | GI50 [8]: 1.57 µM | IC (TGI) [8]: 3.65 µM | CC50 [8]: 8.5 µM | GI50 ([9]; Homo sapiens, 60 cell): 0.15 to 8.41 µM | GI50 [9]: 0.15 to 2.81 µM | GI50 [10]: 1.74 µM | IC (TGI) [10]: 5.48 µM | CC50 [10]: 27.2 µM | activity at 10 µM [10]: 56.7% | cellular and nuclear morphology [11]: deteriorated morphological changes including cell rounding, detachment and cellular fragmentation; also recorded: typical apoptotic characteristics; including condensation of chromatin (brightly stained cells), blubbing with the appearance of nuclear fragmentation | cleaved caspase-3 protein expression [12]: concurrent increase in cleaved caspase-3 expression level; also recorded: time-dependent increase in cleaved caspase-3 protein expression; also recorded: increase the expression of cleaved caspase-3 | GI50 [13]: 0.37 µM | IC (TGI) [13]: > 100 µM | CC50 [13]: > 100 µM | activity at 10 µM [13]: 5.58% | effect on cell-cycle progression [14]: induce cell cycle arrest at S phase boundary; also recorded: remarkable disruption in cell cycle profile and cell-cycle arrest at S-phase boundary with concurrent time-dependent increase in pre-G cell population | GI50 [15]: 0.16 µM | CC50 [15]: 1.63 µM | IC (TGI) [15]: 0.45 µM | activity at 10 µM [15]: -77.3%

Clc1ccc(Nc2nnc(CNc3ccccc3)c3ccccc23)cc1 [Compound 16a, N-(4-Chlorophenyl)-4-((phenylamino)methyl)phthalazin-1-amine]
GI50 [1]: 1.61 µM | IC (TGI) [1]: 15 µM | LC50 [1]: > 25 µM | percent cell growth promotion ([1]; single dose 10 μM): 16.86% | effect on cell-cycle progression [16]: induce cell cycle arrest at S phase boundary; also recorded: significant action at both S phase and sub-G1 cell population | GI50 [2]: 4.92 µM | IC (TGI) [2]: > 25 µM | CC50 [2]: > 25 µM | activity at 10 µM [2]: 41.5% | induction of apoptosis (Annexin-V positive cells), in words [17]: increased the percentage of Annexin-V positive cells in lower right quadrant indicating early apoptosis | GI50 [4]: 1.17 µM | IC (TGI) [4]: 8.28 µM | activity at 10 µM [4]: 2.82% | CC50 [4]: > 25 µM | GI50 [5]: 1.93 µM | IC (TGI) [5]: 10.7 µM | CC50 [5]: > 25 µM | activity at 10 µM [5]: 19.1% | GI50 [6]: 1.47 µM | IC (TGI) [6]: 7.88 µM | activity at 10 µM [6]: 4.17% | CC50 [6]: > 25 µM | GI50 [7]: 3.67 µM | IC (TGI) [7]: 8.1 µM | CC50 [7]: 17.8 µM | percent cell growth promotion ([7]; SF-539, single dose 10 μM): 33.99% | GI50 [8]: 2.16 µM | IC (TGI) [8]: 5.83 µM | CC50 [8]: 14.5 µM | percent cell growth promotion ([8]; SK-MEL-2, single dose 10 μM): 8.63% | GI50 ([9]; Homo sapiens, 60 cell): 0.15 to 8.41 µM | sensitivity in the 5 log dose assay, in words ([9]; NCI 5 log dose): insensitive to prostate and MCF-7 breast cancer cell lines | GI50 [10]: 3.17 µM | IC (TGI) [10]: 11.4 µM | CC50 [10]: > 25 µM | activity at 10 µM [10]: 22% | GI50 [13]: 1.71 µM | IC (TGI) [13]: 14.5 µM | CC50 [13]: > 25 µM | activity at 10 µM [13]: 5.39% | GI50 [15]: 1.57 µM | CC50 [15]: 11.4 µM | IC (TGI) [15]: 4.97 µM | activity at 10 µM [15]: 12.1%
